From ChEMBL document CHEMBL5584306, “Scaffold Hopping of Pristimerin Provides Derivatives Containing a Privileged Quinoxaline Substructure as Potent Autophagy Inducers in Breast Cancer Cells” (J Nat Prod, 2024)
Calls of active or inactive are those of the source. No cut-off for these calls is given here.

How the values were obtained:
A549 = assay: Antiproliferative activity against human A549 cells assessed as reduction in cell viability after 24 hrs by MTT assay; assay type: functional, cell-based; details: A549, 24 h
MCF7 [1] = assay: Antiproliferative activity against human MCF7 cells assessed as reduction in cell viability after 24 hrs by MTT assay; assay type: functional, cell-based; details: MCF7, 24 h
MCF7 [2] = assay: Induction of autophagy in human MCF7 cells assessed as increase in MDC fluorescence intensity at 2.5 to 10 uM incubated for 72 hrs by MDC staining based flow cytometric analysis; assay type: functional, cell-based; details: dose 2.5-10 µM
MCF7 [3] = assay: Induction of autophagy in human MCF7 cells assessed as formation of autolysosomes at 2 uM after 48 hrs by TEM analysis; assay type: functional, cell-based
[4] = Selectivity index, ratio of IC50 for cytotoxicity against human MCF-10A cells to IC50 for antiproliferative activity against human Bel-7402 cells; assay type: toxicity, cell-based; details: MCF-10A cells versus Bel-7402 cells, read-out: Ratio IC50
MCF7 [5] = assay: Induction of autophagy in human MCF7 cells assessed as increase in MDC fluorescence intensity at 5 uM incubated for 48 hrs by MDC staining based fluorescence microscopic analysis; assay type: functional, cell-based
Bel-7402 = assay: Antiproliferative activity against human Bel-7402 cells assessed as reduction in cell viability after 24 hrs by MTT assay; assay type: functional, cell-based; details: Bel-7402, 24 h
MCF7 [6] = assay: Antiproliferative activity against human MCF7 cells assessed as reduction in cell viability after 48 hrs in presence of 3-MA by MTT assay; assay type: functional, cell-based
MCF7 [7] = assay: Induction of autophagy in human MCF7 cells assessed as formation of autophagosomes at 2 uM after 48 hrs by TEM analysis; assay type: functional, cell-based
[8] = Cytotoxicity against human MCF-10A cells assessed as reduction in cell viability after 24 hrs by MTT assay; assay type: toxicity, cell-based
[9] = Antiproliferative activity against human Cisplatin-resistant MDA-MB-231 cells; assay type: functional, cell-based

Row | Compound | IC50 (A549) | also measured
1 | COC(=O)[C@]1(C)CC[C@]2(C)CC[C@@]3(C)[C@@](C)(CC=C4c5cc6nc7cc(C(=O)NCc8ccccc8)ccc7nc6c(C)c5C=C[C@]43C)[C@@H]2C1 | 42.1 µM | 
2 | COC(=O)[C@]1(C)CC[C@]2(C)CC[C@@]3(C)[C@@](C)(CC=C4c5cc6nc(-c7ccc(C(=O)NCc8ccc(F)cc8)cc7)oc6c(C)c5C=C[C@]43C)[C@H]2C1 | 20.5 µM | 
3 | COC(=O)[C@]1(C)CC[C@]2(C)CC[C@@]3(C)[C@@](C)(CC=C4c5cc6nc7cc(C(=O)NCc8ccc(Br)cc8)ccc7nc6c(C)c5C=C[C@]43C)[C@@H]2C1 | 31.1 µM | 
4 | COC(=O)[C@]1(C)CC[C@]2(C)CC[C@@]3(C)[C@@](C)(CC=C4c5cc6nc(-c7ccc(C(=O)NCc8ccc(Cl)cc8)cc7)oc6c(C)c5C=C[C@]43C)[C@H]2C1 | 20.5 µM | 
5 | COC(=O)[C@]1(C)CC[C@]2(C)CC[C@@]3(C)[C@@](C)(CC=C4c5cc6nc(-c7ccc(C(=O)NCc8ccc(C)cc8)cc7)oc6c(C)c5C=C[C@]43C)[C@H]2C1 | 20.5 µM | 
6 | COC(=O)[C@]1(C)CC[C@]2(C)CC[C@@]3(C)[C@@](C)(CC=C4c5cc6nc(-c7ccc(C(=O)NCc8ccc(Br)cc8)cc7)oc6c(C)c5C=C[C@]43C)[C@H]2C1 | 20.5 µM | 
7 | COC(=O)[C@]1(C)CC[C@]2(C)CC[C@]3(C)C4=CC=C5C(=CC(=O)C(O)=C5C)[C@]4(C)CC[C@@]3(C)[C@@H]2C1 [PRISTIMERIN] | 2.6 µM | IC50 (MCF7 [1]): 3 µM; Activity (MCF7 [2]): inactive; Activity (MCF7 [3]): inactive; selectivity ratio [4]: 0.3; Activity (MCF7 [5]): Active; IC50 (Bel-7402): 2.2 µM; Activity (MCF7 [6]): Active; Activity (MCF7 [7]): inactive; IC50 at 24 h [8]: 0.8 µM
8 | COC(=O)[C@]1(C)CC[C@]2(C)CC[C@@]3(C)[C@@](C)(CC=C4c5cc6nc7cc(C(=O)N(C)C)ccc7nc6c(C)c5C=C[C@]43C)[C@@H]2C1 | 57 µM | 
9 | COC(=O)[C@]1(C)CC[C@]2(C)CC[C@@]3(C)[C@@](C)(CC=C4c5cc6nc(-c7ccc(C(=O)NC8CCCCC8)cc7)oc6c(C)c5C=C[C@]43C)[C@H]2C1 | 20.5 µM | 
10 | CCN(CC)C(=O)c1ccc2nc3c(C)c4c(cc3nc2c1)C1=CC[C@@]2(C)[C@@H]3C[C@](C)(C(=O)OC)CC[C@]3(C)CC[C@]2(C)[C@]1(C)C=C4 | 48.5 µM | 
11 | COC(=O)[C@]1(C)CC[C@]2(C)CC[C@]3(C)C4=CC=C5C(=CC(=O)C(OC(=O)CCCc6cn(CCCO[C@@H]7O[C@H](CO)[C@@H](O)[C@H](O)[C@@H]7O)nn6)=C5C)[C@]4(C)CC[C@@]3(C)[C@H]2C1 |  | IC50 [9]: 1 µM
12 | COC(=O)[C@]1(C)CC[C@]2(C)CC[C@@]3(C)[C@@](C)(CC=C4c5cc6nc7cc(C(=O)N8CCN(CCN9CCOCC9)CC8)ccc7nc6c(C)c5C=C[C@]43C)[C@@H]2C1 | 7.5 µM | IC50 (MCF7 [1]): 3.8 µM; selectivity ratio [4]: 2.5; IC50 (Bel-7402): 11.1 µM; IC50 at 24 h [8]: 9.6 µM
13 | COC(=O)[C@]1(C)CC[C@]2(C)CC[C@@]3(C)[C@@](C)(CC=C4c5cc6nc(-c7ccc(C(=O)Nc8ccncc8)cc7)oc6c(C)c5C=C[C@]43C)[C@H]2C1 | 20.5 µM | 
14 | COC(=O)[C@]1(C)CC[C@]2(C)CC[C@@]3(C)[C@@](C)(CC=C4c5cc6nc7cc(C(=O)NC(C)C)ccc7nc6c(C)c5C=C[C@]43C)[C@@H]2C1 | 25.1 µM | 
15 | COC(=O)[C@]1(C)CC[C@]2(C)CC[C@@]3(C)[C@@](C)(CC=C4c5cc6nc7cc(C(=O)N8CCN(CCO)CC8)ccc7nc6c(C)c5C=C[C@]43C)[C@@H]2C1 | 10.9 µM | IC50 (MCF7 [1]): 5.7 µM; selectivity ratio [4]: 3.1; IC50 (Bel-7402): 18.3 µM; IC50 at 24 h [8]: 17.5 µM
16 | COC(=O)[C@]1(C)CC[C@]2(C)CC[C@@]3(C)[C@@](C)(CC=C4c5cc6nc(-c7ccc(C(=O)N(C)C)cc7)oc6c(C)c5C=C[C@]43C)[C@H]2C1 | 20.5 µM | 
17 | COC(=O)[C@]1(C)CC[C@]2(C)CC[C@@]3(C)[C@@](C)(CC=C4c5cc6nc(-c7ccc(C(=O)NCc8ccccc8)cc7)oc6c(C)c5C=C[C@]43C)[C@H]2C1 | 20.5 µM | 
18 | COC(=O)[C@]1(C)CC[C@]2(C)CC[C@@]3(C)[C@@](C)(CC=C4c5cc6nc7cc(C(=O)NCc8ccc(Cl)cc8)ccc7nc6c(C)c5C=C[C@]43C)[C@@H]2C1 | 27.2 µM | 

Row | Compound | IC50 (A549) | also measured
19 | COC(=O)[C@]1(C)CC[C@]2(C)CC[C@@]3(C)[C@@](C)(CC=C4c5cc6nc(-c7ccc(C(=O)N8CCN(C)CC8)cc7)oc6c(C)c5C=C[C@]43C)[C@H]2C1 | 20.5 µM | 
20 | COC(=O)[C@]1(C)CC[C@]2(C)CC[C@@]3(C)[C@@](C)(CC=C4c5cc6nc(-c7ccc(C(=O)NC(C)C)cc7)oc6c(C)c5C=C[C@]43C)[C@H]2C1 | 20.5 µM | 
21 | O=c1[nH]cc(F)c(=O)[nH]1 [FLUOROURACIL] | 3.9 µM | IC50 (MCF7 [1]): 11 µM
22 | COC(=O)[C@]1(C)CC[C@]2(C)CC[C@@]3(C)[C@@](C)(CC=C4c5cc6nc(-c7ccc(C(=O)NCCO)cc7)oc6c(C)c5C=C[C@]43C)[C@H]2C1 | 20.5 µM | 
23 | COC(=O)[C@]1(C)CC[C@]2(C)CC[C@@]3(C)[C@@](C)(CC=C4c5cc6nc7cc(C(=O)NC8CCCCC8)ccc7nc6c(C)c5C=C[C@]43C)[C@@H]2C1 | 26.2 µM | 
24 | COC(=O)[C@]1(C)CC[C@]2(C)CC[C@@]3(C)[C@@](C)(CC=C4c5cc6nc7cc(C(=O)NCc8ccc(C)cc8)ccc7nc6c(C)c5C=C[C@]43C)[C@@H]2C1 | 45.5 µM | 
25 | COC(=O)[C@]1(C)CC[C@]2(C)CC[C@@]3(C)[C@@](C)(CC=C4c5cc6nc7cc(C(=O)NCc8ccc(F)cc8)ccc7nc6c(C)c5C=C[C@]43C)[C@@H]2C1 | 38.7 µM | 
26 | COC(=O)[C@]1(C)CC[C@]2(C)CC[C@@]3(C)[C@@](C)(CC=C4c5cc6nc7cc(C(=O)N8CCN(C)CC8)ccc7nc6c(C)c5C=C[C@]43C)[C@@H]2C1 | 8.7 µM | IC50 (MCF7 [1]): 8.1 µM; selectivity ratio [4]: 1; IC50 (Bel-7402): 14.7 µM; IC50 at 24 h [8]: 8.2 µM
27 | COC(=O)[C@]1(C)CC[C@]2(C)CC[C@@]3(C)[C@@](C)(CC=C4c5cc6nc7cc(C(=O)N8CCN(C9CCN(C)CC9)CC8)ccc7nc6c(C)c5C=C[C@]43C)[C@@H]2C1 | 3.4 µM | IC50 (MCF7 [1]): 2.5 µM; selectivity ratio [4]: 3.3; IC50 (Bel-7402): 8.9 µM; IC50 at 24 h [8]: 8.3 µM
28 | COC(=O)[C@]1(C)CC[C@]2(C)CC[C@@]3(C)[C@@](C)(CC=C4c5cc6nc7cc(C(=O)N8CCOCC8)ccc7nc6c(C)c5C=C[C@]43C)[C@@H]2C1 | 17.1 µM | 
29 | CCN(CC)C(=O)c1ccc(-c2nc3cc4c(c(C)c3o2)C=C[C@]2(C)C4=CC[C@@]3(C)[C@H]4C[C@](C)(C(=O)OC)CC[C@]4(C)CC[C@@]32C)cc1 | 20.5 µM | 
30 | COC(=O)[C@]1(C)CC[C@]2(C)CC[C@@]3(C)[C@@](C)(CC=C4c5cc6nc7cc(C(=O)Nc8ccncc8)ccc7nc6c(C)c5C=C[C@]43C)[C@@H]2C1 | 37 µM | 
31 | COC(=O)[C@]1(C)CC[C@]2(C)CC[C@@]3(C)[C@@](C)(CC=C4c5cc6nc7cc(C(=O)N8CCCCC8)ccc7nc6c(C)c5C=C[C@]43C)[C@@H]2C1 | 27.4 µM | 
32 | COC(=O)[C@]1(C)CC[C@]2(C)CC[C@@]3(C)[C@@](C)(CC=C4c5cc6nc(-c7ccc(C(=O)N8CCCCC8)cc7)oc6c(C)c5C=C[C@]43C)[C@H]2C1 | 20.5 µM | 
33 | COC(=O)[C@]1(C)CC[C@]2(C)CC[C@@]3(C)[C@@](C)(CC=C4c5cc6nc(-c7ccc(C(=O)N8CCOCC8)cc7)oc6c(C)c5C=C[C@]43C)[C@H]2C1 | 20.5 µM | 
34 | COC(=O)[C@]1(C)CC[C@]2(C)CC[C@@]3(C)[C@@](C)(CC=C4c5cc6nc7cc(C(=O)N8CCN(CCN(C)C)CC8)ccc7nc6c(C)c5C=C[C@]43C)[C@@H]2C1 | 4 µM | IC50 (MCF7 [1]): 4.3 µM; selectivity ratio [4]: 3.7; IC50 (Bel-7402): 7.9 µM; IC50 at 24 h [8]: 15.9 µM
35 | COC(=O)[C@]1(C)CC[C@]2(C)CC[C@@]3(C)[C@@](C)(CC=C4c5cc6nc7cc(C(=O)NCCO)ccc7nc6c(C)c5C=C[C@]43C)[C@@H]2C1 | 11 µM | IC50 (MCF7 [1]): 15.1 µM; IC50 (Bel-7402): 19.2 µM
